Assay results: patent US11191742B2, “Methods of treating neurodegenerative disorders in a particular population” (ALZHEON, INC., priority 2015, dated 2021)

Assays:
Assay type in all cases: in vivo, human
[1] = ALZ-801 immediate release tablet, pharmacokinetics and GI tolerability fed vs fasted
[2] = Phase I 14-day multiple ascending dose study, plasma tramiprosate pharmacokinetics; settings: over 14 days
Excerpt: (§1) To advance the clinical development of ALZ-801 into Phase 3, we have completed single dose and 14-day multiple ascending dose Phase 1 bridging studies in healthy elderly volunteers to evaluate safety, tolerability and pharmacokinetics. […] The longer half-life observed in the multiple ascending dose studies was obtained after 14 days of BID dosing and was due to the fact that there were more extended blood sampling time points taken in that study as compared to the single dose study.

[3] = Phase I single dose study, plasma tramiprosate pharmacokinetics; settings: single dose of oral ALZ-801
Excerpt: as §1

SMILES: CC(C)[C@H](N)C(=O)NCCCS(=O)(=O)O [ALZ-801, valyl-3-amino-1-propanesulfonic acid]
- Incidence of GI symptoms with food compared to the fasted state ([1]; ALZ-801 immediate release tablet): markedly reduced
- Difference in pharmacokinetic parameters between fed and fasted subjects ([1]; ALZ-801 tablet, single dose of 205 mg): no significant difference
- Dose proportionality and accumulation of plasma tramiprosate exposure [2]: excellent dose proportionality without accumulation or decrease in plasma exposure
- Plasma exposure of tramiprosate compared with oral tramiprosate [3]: equivalent plasma exposure of tramiprosate
